The experiment deals with potassium channel. As to the kind of experiment: potassium channel activating activity: reduction of potassium chloride-induced contractions of rat hepatic portal veins. As to conditions: isolated hepatic portal veins, male Sprague-Dawley rats; Krebs solution, 37° C.; further 20 mmol of potassium chloride; isometric tension; read-out: IC50 (concentration of test substance producing a half-maximal reduction of the contractions caused by the potassium chloride). How it is done: Hepatic portal veins are removed from male Sprague-Dawley rats and suspended in organ baths under an initial tension of 0.5 g for the isometric recording of tension. The veins are incubated in Krebs solution (consisting of 118 mM of sodium chloride, 25 mM of sodium hydrogen carbonate, 10.5 mM of D-glucose, 4.7 mM of potassium chloride, 0.4 mM of magnesium sulphate, 1.2 mM of potassium dihydrogen phosphate and 2.5 mM of calcium chloride) which is gassed with 95% oxygen and 5% carbon dioxide and maintained at 37° C. After incubation for 0.5 hour to 1 hour a further 20 mmol of potassium chloride is added followed after 0.25 hour to 0.5 hour by increasing concentrations of the test substance. The activity of the test substance is expressed as the IC50 value, which is the concentration of test substance producing a half-maximal reduction of the contractions caused by the potassium chloride.
Regarding `CC1(C)Oc2ccc(C#N)cc2[C@@H](c2cccc[n+]2[O-])[C@@H]1O` (racemic) [Compound F, rac-trans-2-(6-cyano-3,4-dihydro-3-hydroxy-2,2-dimethyl-2H-1-benzopyran-4-yl)pyridine N-oxide], the IC50 is 280 ± 30 nM.

For `CC1(C)CC(c2cccc[n+]2[O-])c2cc(C#N)ccc2O1` (centres unmarked) [Compound A, 2-(6-cyano-3,4-dihydro-2,2-dimethyl-2H-1-benzopyran-4-yl)pyridine N-oxide], the IC50 stood at 160 ± 20 nM.

Consider `CC1(C)C=C(c2cccc[n+]2[O-])c2cc(C#N)ccc2O1` [Compound B, 2-(6-cyano-2,2-dimethyl-2H-1-benzopyran-4-yl)pyridine N-oxide], for which the IC50 was determined as 38 ± 2 nM.

With `CC1(C)CC(c2cccc[n+]2[O-])c2cc([N+](=O)[O-])ccc2O1` (centres unmarked) [Compound C, 2-(3,4-dihydro-2,2-dimethyl-6-nitro-2H-1-benzopyran-4-yl)pyridine N-oxide], the IC50 amounted to 14 ± 1 nM.

As for `CC(=O)c1ccc2c(c1)C(c1cccc[n+]1[O-])CC(C)(C)O2` (centres unmarked) [Compound D, 2-(6-acetyl-3,4-dihydro-2,2-dimethyl-2H-1-benzopyran-4-yl)pyridine N-oxide], the IC50 is 560 ± 70 nM.

Turning to `CC1(C)C=C(c2ccc(-c3ccccc3)c[n+]2[O-])c2cc(C#N)ccc2O1` [Compound E, 2-(6-cyano-2,2-dimethyl-2H-1-benzopyran-4-yl)-5-phenylpyridine N-oxide], the IC50 came out at 15 ± 0.5 nM.

On to `CCC1(C)C=C(c2cccc[n+]2[O-])c2cc(C#N)ccc2O1` (centres unmarked) [Compound G, 2-(6-cyano-2-ethyl-2-methyl-2H-1-benzopyran-4-yl)pyridine N-oxide], for which the IC50 was found to be 19 ± 1.2 nM.

`CC1(C)C=C(c2cc(C#N)ccc2O)c2cc(C#N)ccc2O1` [Compound H, 4-(5-cyano-2-hydroxyphenyl)-2,2-dimethyl-2H-1-benzopyran-6-carbonitrile]: the IC50 worked out at 3100 ± 800 nM.

(Values after patent publication US4971982A, “Benzopyran derivatives” (Hoffmann-La Roche Inc., priority 1987, dated 1990).)
